The results in this text go back to ChEMBL document CHEMBL1201862, “PubChem BioAssay data set” (2004).

Some test systems named below: 786-0; CCRF-CEM; COLO 205; HCT-116; HCT-15; HL-60; IGROV-1; K562; M14; NCI-H23; RXF 393; SK-MEL-5; SN12C; SNB-19; SNB-75; SR; TK-10.
Common to all, as to test: inhibition of tumour cell growth, NCI panel, 48 h

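Following 48 hours of exposure in 96-well plates, responses at five concentrations were used to interpolate endpoints linearly. At the GI50, growth is halved.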 Active and inactive are the calls of the source. Rule as the data show it: active = GI50 up to about 1.1 µM and inactive = higher. A value given as a limit tells only on which side of the number the result lay.

As for `CCOC(=O)c1cnc2sc3ccc4ccccc4c3n2c1=O`, the GI50 in the experiment on 786-0 was > 100 µM (inactive); in the experiment with CCRF-CEM it was 25.1 µM (inactive); in the experiment on COLO 205, 79.3 µM (inactive); with HCT-116, 41.4 µM (inactive); in the experiment on HCT-15 it was 46.3 µM; in the experiment on HL-60, 21.2 µM (inactive). Moreover, the GI50 with IGROV-1 is 42.5 µM (inactive); in the experiment with K562, 37.6 µM (inactive); in the experiment on M14, 81.1 µM (inactive); in the experiment on NCI-H23, 62.5 µM (inactive); in the experiment on RXF 393, > 100 µM (inactive); in the experiment with SK-MEL-5, 32.1 µM (inactive). Also, the GI50 in the experiment on SN12C was 39.3 µM (inactive); in the experiment with SNB-19, > 100 µM (inactive); with SNB-75, > 100 µM (inactive); in the experiment on SR, 40.1 µM (inactive); with TK-10, 62.5 µM (inactive).

For the compound `Nc1ncnc2c(C3OC(CO)C(O)C3O)scc12` (centres undefined), the GI50 was 0.217 µM (active) with 786-0; 0.0597 µM (active) with CCRF-CEM; 0.026 µM (active) in the experiment with COLO 205; 0.00885 µM (active) with HCT-116; 0.00278 µM in the experiment with HCT-15; < 0.001 µM (active) in the experiment with HL-60. Further, the GI50 was 0.513 µM (active) with IGROV-1; 0.00262 µM (active) in the experiment on K562; 0.00586 µM (active) in the experiment on M14; 0.152 µM (active) in the experiment with NCI-H23; 0.222 µM (active) in the experiment with RXF 393; 0.346 µM (active) in the experiment on SK-MEL-5. For the same compound, the GI50 was 0.373 µM (active) in the experiment with SN12C; 1.38 µM (inactive) with SNB-19; 0.459 µM (active) in the experiment on SNB-75; 0.319 µM (active) in the experiment on SR; 0.191 µM (active) in the experiment on TK-10.

For `c1ccc(C2=NOC3(c4ccccc4)SC4CCCCC4CN23)cc1` (centres undefined), the GI50 with 786-0 is 49.1 µM (inactive); with CCRF-CEM, 6.38 µM (inactive); in the experiment with COLO 205, 27.6 µM (inactive); in the experiment with HCT-116 it was 17.8 µM (inactive); with HCT-15, 26.7 µM; in the experiment with HL-60, 5.4 µM (inactive). The GI50 in the experiment with IGROV-1 is 14.7 µM (inactive); in the experiment with K562, 20.2 µM (inactive); in the experiment with M14, 21.9 µM (inactive); in the experiment on NCI-H23, 29.8 µM (inactive); in the experiment with RXF 393 it was 15.9 µM (inactive); in the experiment on SK-MEL-5, 15.2 µM (inactive). Besides, the GI50 was 52.5 µM (inactive) with SN12C; 62.4 µM (inactive) in the experiment with SNB-19; 18.2 µM (inactive) in the experiment on SNB-75; 25 µM (inactive) in the experiment on SR; 83.9 µM (inactive) in the experiment on TK-10.

In the case of `CC1=C2[C@H](c3ccccc3)C3C=CC2(c2ccccc23)N(C(=O)C(c2ccccc2)c2ccccc2)C1=O` (some centres undefined), the GI50 with 786-0 is > 100 µM (inactive); in the experiment with CCRF-CEM, > 100 µM (inactive); in the experiment with COLO 205 it was > 100 µM (inactive); with HCT-116, > 100 µM (inactive); in the experiment with HCT-15 it was more than 100 µM; with HL-60, 41.3 µM (inactive). In addition, the GI50 with IGROV-1, in the experiment on K562, with M14, with NCI-H23, in the experiment on RXF 393 and with SK-MEL-5 was > 100 µM (inactive) in each case. For the same compound, the GI50 with SN12C, in the experiment with SNB-19, in the experiment on SNB-75, in the experiment on SR and in the experiment with TK-10 was > 100 µM (inactive) each time.

In the case of `Cc1c(C(=O)CC(=O)C(=O)NC2C3CC4CC(C3)CC2C4)[n+]([O-])c2ccccc2[n+]1[O-]` (centres undefined), the GI50 in the experiment with 786-0 was > 100 µM (inactive); in the experiment on CCRF-CEM, 90.6 µM (inactive); in the experiment with COLO 205 it was > 100 µM (inactive); with HCT-116, > 100 µM (inactive); in the experiment on HCT-15 it was more than 100 µM; with HL-60, > 100 µM (inactive). The GI50 with IGROV-1, in the experiment on K562, in the experiment with M14, with NCI-H23, in the experiment on RXF 393 and in the experiment on SK-MEL-5 was > 100 µM (inactive) in each case. For the same compound, the GI50 with SN12C, in the experiment on SNB-19, with SNB-75, in the experiment on SR and in the experiment on TK-10 was > 100 µM (inactive) each time.

Consider `O=C(Nc1cc(Cl)ccc1Cl)C(=O)C(c1cnc2ccccc2n1)[N+](=O)[O-]` (centres undefined), for which the GI50 in the experiment with 786-0 is > 100 µM (inactive); in the experiment on CCRF-CEM, > 100 µM (inactive); in the experiment on COLO 205, > 100 µM (inactive); in the experiment on HCT-116, > 100 µM (inactive); with HCT-15 it was more than 100 µM; with HL-60, > 100 µM (inactive). The GI50 in the experiment with IGROV-1, in the experiment with K562, with M14, in the experiment with NCI-H23, with RXF 393 and in the experiment with SK-MEL-5 was > 100 µM (inactive) throughout. The GI50 in the experiment with SN12C, in the experiment on SNB-19, with SNB-75, in the experiment with SR and with TK-10 was > 100 µM (inactive) in each case.

As for `CC1=CC(=O)N2[C@H](OC[C@@H]2C(C)C)O1`, the GI50 in the experiment on 786-0 was > 100 µM (inactive); with CCRF-CEM, > 100 µM (inactive); in the experiment with COLO 205 it was > 100 µM (inactive); in the experiment with HCT-116, > 100 µM (inactive); with HCT-15, more than 100 µM; in the experiment with HL-60 it was > 100 µM (inactive). In addition, the GI50 in the experiment on IGROV-1, in the experiment on K562, in the experiment with M14, in the experiment with NCI-H23, in the experiment on RXF 393 and in the experiment on SK-MEL-5 was > 100 µM (inactive) throughout. The GI50 in the experiment on SN12C, in the experiment with SNB-19, with SNB-75, in the experiment with SR and in the experiment on TK-10 was > 100 µM (inactive) in each case.

Consider `CC(C)(c1ccc(OC#N)cc1)c1ccc(OC#N)cc1`, for which the GI50 with 786-0 is > 100 µM (inactive); in the experiment on CCRF-CEM it was > 55.7 µM (inactive); with COLO 205, > 46.6 µM (inactive); in the experiment with HCT-116 it was > 44.1 µM (inactive); with HCT-15, 20.3 µM; in the experiment on HL-60 it was > 55 µM (inactive). In addition, the GI50 is > 100 µM (inactive) with IGROV-1; > 70 µM (inactive) with K562; > 100 µM (inactive) in the experiment on M14; > 100 µM (inactive) with NCI-H23; > 87.9 µM (inactive) with RXF 393; > 100 µM (inactive) in the experiment with SK-MEL-5. Further, the GI50 was > 100 µM (inactive) in the experiment on SN12C; > 100 µM (inactive) in the experiment with SNB-19; > 52.5 µM (inactive) in the experiment on SNB-75; 27 µM (inactive) with SR; > 100 µM (inactive) in the experiment on TK-10.

As for `Cc1c(C2Cc3ccccc3N2C(=O)/C=C\C(=O)O)c2ccccc2n1C` (centres undefined), the GI50 was 18.4 µM (inactive) with 786-0; 30.8 µM (inactive) in the experiment on CCRF-CEM; 17.1 µM (inactive) in the experiment with COLO 205; 27.5 µM (inactive) in the experiment with HCT-116; more than 100 µM in the experiment on HCT-15; 18.1 µM (inactive) in the experiment on HL-60. The GI50 with IGROV-1 is 24.4 µM (inactive); in the experiment with K562 it was 36.4 µM (inactive); with M14, 17.8 µM (inactive); in the experiment on NCI-H23, 25.9 µM (inactive); in the experiment on RXF 393, 17.2 µM (inactive); with SK-MEL-5 it was 18.2 µM (inactive). In addition, the GI50 with SN12C was 19.5 µM (inactive); in the experiment with SNB-19, 17.4 µM (inactive); in the experiment with SNB-75 it was 21.8 µM (inactive); in the experiment with SR it was 30.1 µM (inactive); with TK-10, 22 µM (inactive).

For the compound `O=[N+]([O-])c1ccc2nc(/C(=N\Nc3ccccc3)C(O)c3ccc4c(c3)OCO4)c(O)nc2c1` (centres undefined), the GI50 was > 100 µM (inactive) in the experiment with 786-0; > 100 µM (inactive) in the experiment with CCRF-CEM; > 100 µM (inactive) in the experiment with COLO 205; > 100 µM (inactive) with HCT-116; 20.7 µM with HCT-15; 52.1 µM (inactive) with HL-60. Besides, the GI50 in the experiment on IGROV-1 was 7.74 µM (inactive); in the experiment with K562 it was 36.4 µM (inactive); in the experiment with M14, > 100 µM (inactive); with NCI-H23, > 100 µM (inactive); with RXF 393, > 100 µM (inactive); with SK-MEL-5 it was > 100 µM (inactive). Further, the GI50 with SN12C was > 100 µM (inactive); in the experiment on SNB-19 it was > 100 µM (inactive); in the experiment on SNB-75 it was 60 µM (inactive); in the experiment with SR it was 91.6 µM (inactive); with TK-10 it was > 100 µM (inactive).

Take `Cc1ccc(N2C(=O)/C(=C/c3ccc(N(CCC#N)CCC#N)cc3)N=C2COc2ccc(Cl)cc2Cl)cc1`: the GI50 in the experiment on 786-0 was > 100 µM (inactive); in the experiment with CCRF-CEM, > 100 µM (inactive); with COLO 205, > 100 µM (inactive); with HCT-116, > 100 µM (inactive); in the experiment on HCT-15 it was more than 100 µM; in the experiment with HL-60, > 100 µM (inactive). The GI50 with IGROV-1, in the experiment on K562, with M14, in the experiment with NCI-H23, in the experiment on RXF 393 and in the experiment on SK-MEL-5 was > 100 µM (inactive) each time. Besides, the GI50 with SN12C, in the experiment with SNB-19, with SNB-75, in the experiment with SR and in the experiment with TK-10 was > 100 µM (inactive) each time.

Regarding `NNC(=O)/C(NC(=O)c1ccccc1)=C(\N)c1ccc(Cl)cc1`, the GI50 was > 100 µM (inactive) in the experiment on 786-0; 38.2 µM (inactive) in the experiment on CCRF-CEM; > 100 µM (inactive) in the experiment with COLO 205; > 100 µM (inactive) in the experiment with HCT-116; more than 100 µM in the experiment with HCT-15; > 100 µM (inactive) in the experiment on HL-60. The GI50 was > 100 µM (inactive) in the experiment on IGROV-1; 89.3 µM (inactive) with K562; > 100 µM (inactive) in the experiment on M14; > 100 µM (inactive) in the experiment on NCI-H23; > 100 µM (inactive) in the experiment with RXF 393; > 100 µM (inactive) with SK-MEL-5. For the same compound, the GI50 with SN12C was > 100 µM (inactive); in the experiment with SNB-19, > 100 µM (inactive); with SNB-75, > 100 µM (inactive); with SR, 83.8 µM (inactive); in the experiment with TK-10 it was > 100 µM (inactive).
